Data reported in US20180362598A1 (priority 2016, published 2018).

test system: insect gut protease (X condition); type: biochemical

First: IFVALKGS
Second: LFVALKGS
The “% of Max Slope X” value of the first is lower: 69% for the first, 92% for the second.

First: LFVRLRGS
Second: LKLFVGS
The “% of Max Slope X” value of the first is lower: 94% for the first, 98% for the second.

For LRLFVGS, the “% of Max Slope X” value was 74%.
